Experimental data published in ChEMBL document CHEMBL3046324, “Molecular recognition of long chain fatty acids by peroxisome proliferator-activated receptor” (Med Chem Res, 2009).

Legend:
[1] = target: T1, Peroxisome proliferator-activated receptor alpha (Homo sapiens, UniProt Q07869); assay: Inhibition of PPAR-alpha (unknown origin) by SPA assay
T1 sequence (Q07869 whole entry): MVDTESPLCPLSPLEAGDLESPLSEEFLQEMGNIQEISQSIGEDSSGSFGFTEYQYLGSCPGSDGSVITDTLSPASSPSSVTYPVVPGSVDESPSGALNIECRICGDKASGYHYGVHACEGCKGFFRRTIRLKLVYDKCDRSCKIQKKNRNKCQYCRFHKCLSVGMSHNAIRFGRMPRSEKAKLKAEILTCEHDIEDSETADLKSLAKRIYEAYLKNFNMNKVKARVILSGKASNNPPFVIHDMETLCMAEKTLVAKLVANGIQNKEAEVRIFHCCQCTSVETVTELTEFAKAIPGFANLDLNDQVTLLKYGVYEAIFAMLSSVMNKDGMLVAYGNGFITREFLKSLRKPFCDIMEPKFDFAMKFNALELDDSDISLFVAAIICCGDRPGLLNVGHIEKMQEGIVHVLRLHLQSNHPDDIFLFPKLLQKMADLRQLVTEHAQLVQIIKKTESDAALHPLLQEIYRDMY

[2] = target: T1, Peroxisome proliferator-activated receptor alpha; assay: Binding affinity to PPAR-alpha (unknown origin) by fluorescence-based assay

IC50 [1] | Kd [2] | Structure (SMILES)
1400 nM | – | CCCCC/C=C\C/C=C\C/C=C\CCCCCCC(=O)O [DIHOMO-GAMMA-LINOLENIC ACID]
> 30000 nM | – | CCCCCCCC/C=C\CCCCCCCCCCCC(=O)O [ERUCIC ACID]
270 nM | – | CCCCC/C=C\C/C=C\C/C=C\CCCCC(=O)O [GAMOLENIC ACID]
1100 nM | – | CC/C=C\C/C=C\C/C=C\C/C=C\C/C=C\CCCC(=O)O [ICOSAPENT]
1100 nM | 4.8 nM | CCCCC/C=C\C/C=C\CCCCCCCC(=O)O [LINOLEIC ACID]
1200 nM | 7.9 nM | CC/C=C\C/C=C\C/C=C\CCCCCCCC(=O)O [LINOLENIC ACID]
600 nM | – | CCCCCCCC/C=C\CCCCCCCC(=O)O [OLEIC ACID]
1700 nM | – | CCCCCC/C=C\CCCCCCCC(=O)O [PALMITOLEIC ACID]

Structure (SMILES) | IC50 [1] | Kd [2]
CCCCC/C=C\C/C=C\C/C=C\C/C=C\CCCC(=O)O [ARACHIDONIC ACID] | 1200 nM | –
